This is an account of results in patent US20100284992A1 (priority 2006, published 2010).

What is called Km is the concentration of substrate that gives half-maximal velocity. As usually defined, the Vmax is the top rate of the reaction or transport when substrate is in excess. One may read the kcat as the number of substrate molecules converted per active site and unit of time at saturation.

Each structure is given as a SMILES string. Where a SMILES comes first, the peptide text is derived from it. The star is where a group is joined. Cbz = O=C(OCc1ccccc1)*; CH2F = FC*

In assay [1] the target is Pseudomonas aeruginosa hemolytic phospholipase C PlcHR2, wild type (Pseudomonas aeruginosa, UniProt P06200). The format is biochemical.
Pseudomonas aeruginosa hemolytic phospholipase C PlcHR2, wild type, sequence (P06200 39-730 limits assumed): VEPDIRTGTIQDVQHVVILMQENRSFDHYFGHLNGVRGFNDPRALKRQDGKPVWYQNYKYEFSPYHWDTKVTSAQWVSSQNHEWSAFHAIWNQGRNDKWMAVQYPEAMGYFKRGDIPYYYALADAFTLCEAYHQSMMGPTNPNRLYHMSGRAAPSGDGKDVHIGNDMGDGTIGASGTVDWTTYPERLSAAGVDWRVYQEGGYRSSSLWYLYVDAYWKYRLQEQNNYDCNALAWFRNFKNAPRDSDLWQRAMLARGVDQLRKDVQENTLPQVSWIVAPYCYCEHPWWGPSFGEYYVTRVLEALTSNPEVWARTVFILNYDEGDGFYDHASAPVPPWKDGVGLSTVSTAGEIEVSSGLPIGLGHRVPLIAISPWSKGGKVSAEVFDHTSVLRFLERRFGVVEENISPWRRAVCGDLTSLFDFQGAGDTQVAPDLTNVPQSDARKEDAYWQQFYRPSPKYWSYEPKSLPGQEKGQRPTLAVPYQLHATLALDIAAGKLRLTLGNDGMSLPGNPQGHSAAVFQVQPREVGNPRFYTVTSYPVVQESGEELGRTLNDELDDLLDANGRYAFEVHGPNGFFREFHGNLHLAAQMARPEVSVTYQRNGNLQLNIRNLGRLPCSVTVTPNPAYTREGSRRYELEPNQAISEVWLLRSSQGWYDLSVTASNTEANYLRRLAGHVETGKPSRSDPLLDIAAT
Another assay concerns HUVEC. The class given is cell-based, Homo sapiens.

Turning to `C[N+](C)(C)CCOP(=O)([O-])Oc1ccc([N+](=O)[O-])cc1` [NPPC, ρ-nitrophenyl-phosphorylcholine], in assay [1] (pH 7.2), the Km was 19 mM and the Vmax came out at 147 ± 6 µmol/min/mg. In assay [1] (pH 7.2, 37° C.), the kcat is 192 s⁻¹.

Regarding `COC(=O)C[C@H](NC(=O)[C@H](C)NC(=O)[C@@H](NC(=O)OCc1ccccc1)C(C)C)C(=O)CF` [Z-VAD-FMK] (Cbz-Val-Ala-Asp(OMe)-CH2F), the “reduction of PlcHR2-induced LDH release” value in the assay on HUVEC was “reduced the amount of LDH release”.
